Several values for one entry are separate records, joined by “and”; a condition that tells them apart may be missing. Identical values can stand only once. Toxic doses and inconclusive results are not listed.
Test system: CD2F1 mice, L1210 leukemia ip, survival T/C
Experiment: NCI In Vivo Anticancer Drug Screen. Data for tumor model L1210 Leukemia (intraperitoneal) in CD2F1 (CDF1) mice
Settings: higher = longer survival
Outline: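 Antitumor effect is scored in animals hosting a serially transplanted tumor. Values compare compound-dosed animals against vehicle-only controls as a simple quotient.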

[1] = endpoint: mean survival time, dose: 100.0 mg/kg/injection, schedule: Q01DX009 (ip), vehicle: saline with Tween-80
[2] = endpoint: mean survival time, dose: 100.0 mg/kg/injection, schedule: Q04DX003 (ip), vehicle: saline with Tween-80
[3] = endpoint: mean survival time, dose: 200.0 mg/kg/injection, schedule: Q01DX009 (ip), vehicle: saline with Tween-80
[4] = endpoint: mean survival time, dose: 200.0 mg/kg/injection, schedule: Q04DX003 (ip), vehicle: saline with Tween-80
[5] = endpoint: mean survival time, dose: 400.0 mg/kg/injection, schedule: Q01DX009 (ip), vehicle: saline with Tween-80
[6] = endpoint: mean survival time, dose: 400.0 mg/kg/injection, schedule: Q04DX003 (ip), vehicle: saline with Tween-80
[7] = endpoint: mean survival time, dose: 200.0 mg/kg/injection, schedule: Q01DX009 (ip), vehicle: saline sonified
[8] = endpoint: mean survival time, dose: 12.5 mg/kg/injection, schedule: Q01DX009 (ip), vehicle: saline
[9] = endpoint: mean survival time, dose: 25.0 mg/kg/injection, schedule: Q01DX009 (ip), vehicle: saline
[10] = endpoint: mean survival time, dose: 100.0 mg/kg/injection, schedule: Q01DX001 (ip), vehicle: saline with Tween-80
[11] = endpoint: mean survival time, dose: 200.0 mg/kg/injection, schedule: Q01DX001 (ip), vehicle: saline with Tween-80
[12] = endpoint: mean survival time, dose: 50.0 mg/kg/injection, schedule: Q01DX001 (ip), vehicle: saline with Tween-80
[13] = endpoint: mean survival time, dose: 50.0 mg/kg/injection, schedule: Q01DX009 (ip), vehicle: saline with Tween-80

Cc1ccc(S(=O)(=O)NCC(Br)CBr)cc1 (stereo not given)
T/C [1]: 93 % of control | T/C [2]: 100 % of control | T/C [3]: 93 % of control | T/C [4]: 98 % of control | T/C [5]: 96 % of control | T/C [6]: 100 % of control

CCN(CC)CCNCc1c[nH]c(=S)[nH]c1=O
T/C (endpoint: mean survival time, dose: 100.0 mg/kg/injection, schedule: Q04DX003 (ip), vehicle: saline): 103 % of control | T/C (endpoint: mean survival time, dose: 200.0 mg/kg/injection, schedule: Q04DX003 (ip), vehicle: saline): 97 % of control | T/C (endpoint: mean survival time, dose: 400.0 mg/kg/injection, schedule: Q04DX003 (ip), vehicle: saline): 101 % of control

O=P(O)(O)OP(=O)(O)OCC1OC(n2cnc3c(=S)nc[nH]c32)C(O)C1O (stereo not given)
T/C [7]: 123 % of control | T/C (endpoint: mean survival time, dose: 400.0 mg/kg/injection, schedule: Q01DX009 (ip), vehicle: saline sonified): 112 % of control

C1CNC2NCCNC2N1 (stereo not given)
T/C [1]: 101 % of control | T/C (endpoint: mean survival time, dose: 100.0 mg/kg/injection, schedule: Q04DX003 (ip), vehicle: saline sonified): 109 % of control | T/C [3]: 102 % of control | T/C (endpoint: mean survival time, dose: 200.0 mg/kg/injection, schedule: Q04DX003 (ip), vehicle: saline sonified): 103 % of control | T/C [5]: 108 % of control | T/C (endpoint: mean survival time, dose: 400.0 mg/kg/injection, schedule: Q04DX003 (ip), vehicle: saline sonified): 115 % of control

CCCC[N+](CCCC)(CCCC)CCCC.[O-][PH+](O)O[PH+]([O-])O.[O-][PH+](O)O[PH+]([O-])O.[O-][PH+](O)O[PH+]([O-])O.[O-][PH+](O)O[PH+]([O-])O.[Pt+2].[Pt+2]
T/C (endpoint: median survival time, dose: 10.0 mg/kg/injection, schedule: Q04DX003 (ip), vehicle: water): 100 % of control | T/C (endpoint: median survival time, dose: 40.0 mg/kg/injection, schedule: Q04DX003 (ip), vehicle: water): 105 % of control

c1cc2c3c(cccc3c1)/C(=C1/Cc3cccc4cccc1c34)C2
T/C [1]: 107 % of control | T/C [2]: 103 % of control | T/C [3]: 113 % of control | T/C [4]: 104 % of control | T/C [5]: 110 % of control | T/C [6]: 107 % of control

O=c1cn[nH]c(=O)[nH]1
T/C (endpoint: median survival time, dose: 62.5 mg/kg/injection, schedule: Q01DX009 (ip), vehicle: saline): 94 % of control and 100 % of control | T/C (endpoint: median survival time, dose: 125.0 mg/kg/injection, schedule: Q01DX009 (ip), vehicle: saline): 100 % of control | T/C (endpoint: median survival time, dose: 250.0 mg/kg/injection, schedule: Q01DX009 (ip), vehicle: saline): 122 % of control and 100 % of control | T/C (endpoint: median survival time, dose: 500.0 mg/kg/injection, schedule: Q01DX009 (ip), vehicle: saline): 111 % of control and 112 % of control

C1CSC(=[N+]2CC[N+](=C3SCCS3)CC2)S1
T/C [8]: 101 % of control | T/C [9]: 104 % of control | T/C (endpoint: mean survival time, dose: 25.0 mg/kg/injection, schedule: Q04DX002 (ip), vehicle: saline): 100 % of control | T/C (endpoint: mean survival time, dose: 50.0 mg/kg/injection, schedule: Q04DX002 (ip), vehicle: saline): 88 % of control

CCC(C)C(C(=O)O)C(=O)O (stereo not given)
T/C (endpoint: mean survival time, dose: 75.0 mg/kg/injection, schedule: Q01DX001 (ip), vehicle: saline): 100 % of control | T/C (endpoint: mean survival time, dose: 150.0 mg/kg/injection, schedule: Q01DX001 (ip), vehicle: saline): 100 % of control | T/C (endpoint: mean survival time, dose: 300.0 mg/kg/injection, schedule: Q01DX001 (ip), vehicle: saline): 102 % of control

COc1ccccc1N=Nc1c(O)n(-c2ccccc2OC)c(=S)n(-c2ccc(Cl)cc2)c1=O
T/C [10]: 90 % of control | T/C [11]: 93 % of control

Nc1ccc(C(=O)Nc2cccc(OCc3nc(N)nc(N)c3-c3ccc(Cl)cc3)c2)cc1
T/C [12]: 93 % of control | T/C [10]: 93 % of control | T/C [11]: 93 % of control

O=C1C(c2ccccc2)=C(c2ccccc2)CC(c2ccccc2)C1c1ccccc1 (stereo not given)
T/C [2]: 97 % of control | T/C [4]: 97 % of control | T/C [6]: 95 % of control

CC(C)C(=NO)C(C)C
T/C [1]: 98 % of control | T/C [2]: 101 % of control | T/C [3]: 93 % of control | T/C [4]: 93 % of control | T/C [6]: 91 % of control

CSc1nc(Cl)cc(Sc2nc(N)nc3nc[nH]c23)n1
T/C (endpoint: mean survival time, dose: 18.75 mg/kg/injection, schedule: Q01DX009 (ip), vehicle: Klucel (hydroxypropylcellulose) (HPC)): 173 % of control | T/C (endpoint: mean survival time, dose: 37.5 mg/kg/injection, schedule: Q01DX009 (ip), vehicle: Klucel (hydroxypropylcellulose) (HPC)): 175 % of control | T/C (endpoint: mean survival time, dose: 150.0 mg/kg/injection, schedule: Q01DX009 (ip), vehicle: Klucel (hydroxypropylcellulose) (HPC)): 97 % of control

N#C/C(=C\c1cccc(OCc2ccccc2)c1)c1ccc([N+](=O)[O-])cc1
T/C (endpoint: mean survival time, dose: 6.25 mg/kg/injection, schedule: Q04DX003 (ip), vehicle: saline): 98 % of control | T/C (endpoint: mean survival time, dose: 12.5 mg/kg/injection, schedule: Q04DX003 (ip), vehicle: saline): 98 % of control | T/C (endpoint: mean survival time, dose: 25.0 mg/kg/injection, schedule: Q04DX003 (ip), vehicle: saline): 102 % of control

N=C(N)c1ccc(OCCCOc2ccc(NC(=O)Nc3ccc(S(=O)(=O)F)cc3)cc2)cc1
T/C [12]: 95 % of control | T/C [10]: 89 % of control | T/C [11]: 93 % of control

CN1CCN(CCSSCCN2CCN(C)CC2)CC1
T/C (endpoint: mean survival time, dose: 50.0 mg/kg/injection, schedule: Q01DX009 (ip), vehicle: saline sonified): 97 % of control | T/C (endpoint: mean survival time, dose: 100.0 mg/kg/injection, schedule: Q01DX009 (ip), vehicle: saline sonified): 97 % of control | T/C [2]: 105 % of control | T/C [7]: 98 % of control | T/C [4]: 100 % of control

COc1cc2c(cc1OC)C[N+]1(C)CCc3cc(OC)c(OC)cc3C1C2 (stereo not given)
T/C (endpoint: mean survival time, dose: 5.0 mg/kg/injection, schedule: Q01DX001 (ip), vehicle: saline): 97 % of control | T/C (endpoint: mean survival time, dose: 10.0 mg/kg/injection, schedule: Q01DX001 (ip), vehicle: saline): 93 % of control | T/C (endpoint: mean survival time, dose: 20.0 mg/kg/injection, schedule: Q01DX001 (ip), vehicle: saline): 103 % of control | T/C (endpoint: mean survival time, dose: 40.0 mg/kg/injection, schedule: Q01DX001 (ip), vehicle: saline): 97 % of control

CC(=O)N(C)c1ccc(Nc2cc(C)[nH]c3ccc4ncnc4c23)cc1
T/C (endpoint: mean survival time, dose: 6.25 mg/kg/injection, schedule: Q01DX009 (ip), vehicle: saline): 114 % of control and 110 % of control | T/C [8]: 120 % of control and 110 % of control | T/C [9]: 118 % of control and 121 % of control | T/C (endpoint: mean survival time, dose: 50.0 mg/kg/injection, schedule: Q01DX009 (ip), vehicle: saline): 119 % of control | T/C (endpoint: mean survival time, dose: 100.0 mg/kg/injection, schedule: Q01DX009 (ip), vehicle: saline): 113 % of control and 100 % of control | T/C (endpoint: median survival time, dose: 67.0 mg/kg/injection, schedule: Q01DX005 (ip), vehicle: saline): 156 % of control and 164 % of control | T/C (endpoint: median survival time, dose: 100.0 mg/kg/injection, schedule: Q01DX005 (ip), vehicle: saline): 160 % of control

CN(C)CCSCC(OC(=O)c1ccccc1)c1ccccc1 (stereo not given)
T/C (endpoint: mean survival time, dose: 25.0 mg/kg/injection, schedule: Q01DX009 (ip), vehicle: saline with Tween-80): 102 % of control | T/C [13]: 98 % of control | T/C [1]: 100 % of control

Oc1ccc(N=Cc2ccccc2O)cc1
T/C (endpoint: mean survival time, dose: 178.0 mg/kg/injection, schedule: Q04DX003 (ip), vehicle: carboxymethylcellulose (CMC)): 101 % of control | T/C (endpoint: mean survival time, dose: 267.0 mg/kg/injection, schedule: Q04DX003 (ip), vehicle: carboxymethylcellulose (CMC)): 102 % of control | T/C (endpoint: mean survival time, dose: 400.0 mg/kg/injection, schedule: Q04DX003 (ip), vehicle: carboxymethylcellulose (CMC)): 98 % of control | T/C (endpoint: mean survival time, dose: 600.0 mg/kg/injection, schedule: Q04DX003 (ip), vehicle: carboxymethylcellulose (CMC)): 101 % of control

S=c1nccc[nH]1
T/C (endpoint: mean survival time, dose: 100.0 mg/kg/injection, schedule: Q04DX002 (ip), vehicle: saline with Tween-80): 105 % of control

Cc1ccc(NC(=O)CCl)cc1Cl
T/C [13]: 95 % of control | T/C [1]: 90 % of control | T/C [2]: 98 % of control | T/C [4]: 89 % of control

NC(C1SCCS1)C(O)C(O)C(O)CO (stereo not given)
T/C [2]: 101 % of control | T/C [4]: 104 % of control | T/C [6]: 98 % of control

CCCC(O)C(CC)[N+](=O)[O-] (stereo not given)
T/C [10]: 102 % of control | T/C [11]: 98 % of control | T/C (endpoint: mean survival time, dose: 400.0 mg/kg/injection, schedule: Q01DX001 (ip), vehicle: saline with Tween-80): 94 % of control

COc1nn(O)cc(C)c1=N
T/C (endpoint: mean survival time, dose: 6.25 mg/kg/injection, schedule: Q04DX002 (ip), vehicle: saline with Tween-80): 93 % of control | T/C (endpoint: mean survival time, dose: 12.5 mg/kg/injection, schedule: Q04DX002 (ip), vehicle: saline with Tween-80): 101 % of control | T/C (endpoint: mean survival time, dose: 25.0 mg/kg/injection, schedule: Q04DX002 (ip), vehicle: saline with Tween-80): 101 % of control
